In patent US20050113331A1, “Compositions and methods for use of antiviral drugs in the treatment of retroviral diseases resistant to nucleoside reverse transcriptase inhibitors” (priority 2003, published 2005):
Read-outs that look alike come from different tables or passages of the source.

Legend:
[1] = target: TAM-mutant HIV-1 reverse transcriptase (UniProt P04585); format: biochemical; design: other: preferred BPH variants; conditions: read-out: Estimated IC50; preferred BPH variants; quantity inhibited not given
Description: (§1) An 18 nucleotide DNA oligonucleotide (“primer DNA”) of sequence 5′-[…]-3′ was 5′ end labeled using [y^32p]-ATP and T4 polynucleotide kinase. The labeled primer DNA was purified by polyacrylamide gel electrophoresis, and then annealed to a synthetic DNA oligonucleotide (“template DNA”) of the sequence 5′-[…] […]-3′, to form “template/primer DNA”. Template/primer DNA was then chain-terminated with AZTMP by incubating for 30 minutes at 37° C. with HIV-1 reverse transcriptase in 50 mM Tris-HCl, pH 7.8, containing 60 mM KCl, 10 mM MgCl2, and 100 μM AZTTP. The total incubation sample was then dried under reduced pressure and the [^32P]-labeled, 3′-AZTMP-terminated primer DNA (now 19 nucleotides in length) was purified by polyacrylamide gel electrophoresis. The purified [^32P]-labeled, 3′-AZTMP-terminated primer DNA was annealed to template DNA to form the nucleic acid excision substrate (termed “AZTMP-T/P”).
(§2) At various times thereafter, aliquots were removed and quenched by dilution into sequencing gel loading buffer (98% deionized formamide, 10 mM EDTA, and 1 mg/mL each of bromophenol blue and xylene cyanol). Samples were heated at 100° C. for 5 minutes then subjected to polyacylamide gel electrophoresis using 16% polyacrylamide/7 M urea gels. Electrophoretically resolved products were visualized and quantified by phosphorimaging analysis.
(§3) The [^32P]-labeled, 3′-AZTMP-terminated nucleic acid excision substrate (“AZTMP-T/P”) is made as described in Example 2. […] After 10 minutes (for reactions with ATP) or 5 minutes (for reactions with sodium pyrophosphate), the reactions are stopped by the addition of 2 volumes of sequencing gel loading buffer (98% deionized formamide, 10 mM EDTA, and 1 mg/ml each of bromophenol blue and xylene cyanol). An identical control reaction in which RT is omitted is also carried out simultaneously. Samples are heated at 100° C. for 5 minutes then subjected to polyacylamide gel electrophoresis using 16% polyacrylamide/7 M urea gels. Electrophoretically resolved products are visualized and quantified by phosphorimaging analysis. The percent excision is defined by the amount of the 19 nucleotide [^32P]-labeled, 3′-AZTMP-terminated primer DNA in the sample divided by the amount of the 19 nucleotide [^32P]-labeled, 3′-AZTMP-terminated primer DNA in the control, multiplied by 100.

[2] = target: TAM-mutant HIV-1 reverse transcriptase (UniProt P04585); format: biochemical; design: AZT-terminated DNA that had undergone excision; other: 20 micromolar 218A, 3 mM ATP, after 10 minutes; 65% without bisp; other: 5 micromolar bisphosphonate, 3 mM ATP, after 10 min; 65% without; conditions: for % Inhibition of AZT excision: BPH concentration not given
Description: as §1, §2, §3

[3] = test system: wild type HIV-1; test: Antiviral activity against wild type HIV-1 in P4/R5 cells; format: cell-based; conditions: Human immunodeficiency virus 1, compound alone, read-out: EC50 against replication
[4] = test system: AZT-resistant HIV-1; test: Antiviral activity against AZT-resistant HIV-1 in P4/R5 cells; format: cell-based
Description: P4/R5 cells are plated in 96-well culture dishes at a cell density of 3×10^3 cells/well in 100 μl DMEM/10% fetal bovine serum. In one set of plates, bisphosphonate variants are added (25μM final concentration in FIG. 6) to individual wells. In another identical set of plates, bisphosphonate variants are added along with specific concentrations of AZT (0.1 μM final concentration in FIG. 6). Each well is inoculated with AZT-resistant HIV (multiplicity of infection=1), and the cells are incubated at 37° C. for 48 hours. The cells are then washed and the extent of HIV infection is determined fluorometrically. The percent inhibition of HIV replication is calculated as [1-(fluorescence signal of cells infected in the presence of bisphosphonate divided by the fluorescence signal of cells infected in the absence of any drug)] multiplied by 100.

| Compound | IC50 [1] | other results |
| --- | --- | --- |
| CC(C)c1cccc(NC(P(=O)(O)O)P(=O)(O)O)c1 [Compound 248A] | 3.7 µM | % Inhibition of AZT excision [2]: 59% |
| O=P(O)(O)C(O)(Cc1ccc(-c2ccc(F)cc2)cc1)P(=O)(O)O [Compound 325A] | 2.9 µM |  |
| O=P(O)(O)C(O)(Cc1cccc(Br)c1)P(=O)(O)O [Compound 255A] | 1.8 µM | % Inhibition of AZT excision [2]: 76% |
| O=P(O)(O)C(O)(Cc1cccc(-c2ccc(F)c(F)c2)c1)P(=O)(O)O [Compound 336A] | 1 µM |  |
| O=P(O)(O)C(Nc1ccc(Cl)cc1Cl)P(=O)(O)O [Compound 244A] | 8 µM |  |
| O=[N+]([O-])c1cccc(NC(P(=O)(O)O)P(=O)(O)O)c1 [Compound 304A] | 2.7 µM |  |
| O=P(O)(O)C(O)(Cc1cccc(C(F)(F)F)c1)P(=O)(O)O [Compound 250A] | 2.9 µM | % Inhibition of AZT excision [2]: 68% |
| Cc1cn([C@H]2C[C@H](N=[N+]=[N-])[C@@H](CO)O2)c(=O)[nH]c1=O [AZT, 3′-azido-3′-deoxythymidine] |  | EC50 [3]: ~0.14 µM; EC50 ([4]; Human immunodeficiency virus 1, P4/R5, read-out: EC50 of AZT in the presence of 218A): > 0.025 µM; inhibition at 0.1 µM ([4]; Human immunodeficiency virus 1, P4/R5, 0.1 μM final concentration, alone, 48 hours, FIG. 6, read-out: percent inhibition of HIV replication): 2%; EC50 ([4]; Human immunodeficiency virus 1, compound alone, P4/R5 cells, read-out: EC50 against replication): ~1.2 µM |
| COc1cccc(CC(O)(P(=O)(O)O)P(=O)(O)O)c1 [Compound 341A] | 5.4 µM |  |
| O=P(O)(O)C(CNc1ccc(-c2ccccc2)cc1)P(=O)(O)O [Compound 331A] | 4.6 µM |  |
| CN(C)Cc1cccc(CC(O)(P(=O)(O)O)P(=O)(O)O)c1 [Compound 289A] | 8.3 µM |  |
| O=P(O)(O)C(O)(Cc1cccc(-c2ccc(F)cc2)c1)P(=O)(O)O [Compound 313A] | 1.9 µM |  |
| O=P(O)(O)C(Nc1cccc(Cc2ccccc2)c1)P(=O)(O)O [Compound 262A] | 4.2 µM | % Inhibition of AZT excision [2]: 66% |
| CC(C)CCNCC(P(=O)(O)O)P(=O)(O)O [Compound 311A] | 15.5 µM |  |
| O=P(O)(O)C(Nc1ccc2c(c1)CCC2)P(=O)(O)O [Compound 215A] | 4.5 µM | % Inhibition of AZT excision [2]: 75% |
| O=P(O)(O)C(Nc1ccc(Cc2ccccc2)cc1)P(=O)(O)O [Compound 332A] | 3.5 µM |  |
| COCc1cccc(NC(P(=O)(O)O)P(=O)(O)O)c1 [Compound 281A] | 9.5 µM |  |
| O=C(O)P(=O)(O)O [Foscarnet, phosphonoformic acid, reference compound] |  | concentration dependence of inhibition of ATP-mediated excision of AZT ([2]; increasing concentration, FIG. 3): did not inhibit ATP-mediated excision of AZT as well as 218A |
| CCn1c2ccccc2c2cc(NC(P(=O)(O)O)P(=O)(O)O)ccc21 [Compound 228A] | 4.1 µM | % Inhibition of AZT excision [2]: 60% |
| O=P(O)(O)C(O)(Cc1ccc(-c2ccc(Cl)cc2)cc1)P(=O)(O)O [Compound 326A] | 3.9 µM |  |
| O=P(O)(O)C(O)(Cc1cccc(-c2cc(F)ccc2F)c1)P(=O)(O)O [Compound 334A] | 1.5 µM |  |

| Compound | IC50 [1] | other results |
| --- | --- | --- |
| O=P(O)(O)C(Nc1cccc(-c2ccc(F)cc2F)c1)P(=O)(O)O [Compound 316A] | 3.9 µM |  |
| O=P(O)(O)C(Nc1cccc(CO)c1)P(=O)(O)O [Compound 280A] | 7.9 µM |  |
| O=P(O)(O)C(O)(Cc1cccc(-c2ccc(Cl)cc2)c1)P(=O)(O)O [Compound 314A] | 0.9 µM |  |
| O=P(O)(O)C(O)(Cc1cccc(I)c1)P(=O)(O)O [Compound 251A] | 3.4 µM |  |
| O=P(O)(O)C(Nc1cccc(-c2ccc(F)c(F)c2)c1)P(=O)(O)O [Compound 327A] | 2.1 µM |  |
| O=P(O)(O)C(Nc1ccc(Br)cn1)P(=O)(O)O [Compound 48B] | 3.4 µM |  |
| O=P(O)(O)C(O)(Cc1cccc(I)c1)P(=O)(O)O [Compound 279A] | 1.1 µM |  |
| O=P(O)(O)C(Nc1cccc(Br)c1)P(=O)(O)O [Compound 302A] | 1 µM |  |
| O=P(O)(O)C(O)(Cc1cccc(Cl)c1)P(=O)(O)O [Compound 253A] | 3.1 µM | % Inhibition of AZT excision [2]: 70% |
| COc1ccc(-c2cccc(CC(O)(P(=O)(O)O)P(=O)(O)O)c2)cc1 [Compound 315A] | 2.4 µM |  |
| O=P(O)(O)C(CNc1cccc(-c2ccccc2)c1)P(=O)(O)O [Compound 312A] | 11.3 µM |  |
| O=P(O)(O)C(O)(Cc1cccc2ccccc12)P(=O)(O)O [Compound 257A] | 1.35 µM |  |
| O=[N+]([O-])c1cccc(CC(O)(P(=O)(O)O)P(=O)(O)O)c1 [Compound 256A] | 2.5 µM | % Inhibition of AZT excision [2]: 66% |
| O=P(O)(O)C(Nc1cccc(-c2cc(F)cc(F)c2)c1)P(=O)(O)O [Compound 317A] | 2.1 µM |  |
| Cc1ccc(NC(P(=O)(O)O)P(=O)(O)O)cc1-c1ccccc1 [Compound 340A] | 5 µM |  |
| O=P(O)(O)C(O)(Cc1cccc(Oc2ccccc2)c1)P(=O)(O)O [Compound 339A] | 3.3 µM |  |
| O=P(O)(O)C(O)(CC12CC3CC(CC(C3)C1)C2)P(=O)(O)O [Compound 329A] | 4.6 µM |  |
| O=P(O)(O)C(O)(Cc1ccc(Cl)c(Cl)c1)P(=O)(O)O [Compound 342A] | 0.4 µM |  |
| O=P(O)(O)C(Cn1cnc2ccccc21)P(=O)(O)O [Compound 298A] | 13.5 µM |  |
| COc1ccc(-c2ccc(CC(O)(P(=O)(O)O)P(=O)(O)O)cc2)cc1 [Compound 333A] | 5.2 µM |  |
